Experimental data: publication PMC10223164, “Exploration of the Transglycosylation Activity of Barley Limit Dextrinase for Production of Novel Glycoconjugates” (Molecules, 2023)

Biological target: T1, HvLD (barley limit dextrinase) (Hordeum vulgare, UniProt Q9FYY0)
T1 sequence (Q9FYY0 1-905 limits assumed): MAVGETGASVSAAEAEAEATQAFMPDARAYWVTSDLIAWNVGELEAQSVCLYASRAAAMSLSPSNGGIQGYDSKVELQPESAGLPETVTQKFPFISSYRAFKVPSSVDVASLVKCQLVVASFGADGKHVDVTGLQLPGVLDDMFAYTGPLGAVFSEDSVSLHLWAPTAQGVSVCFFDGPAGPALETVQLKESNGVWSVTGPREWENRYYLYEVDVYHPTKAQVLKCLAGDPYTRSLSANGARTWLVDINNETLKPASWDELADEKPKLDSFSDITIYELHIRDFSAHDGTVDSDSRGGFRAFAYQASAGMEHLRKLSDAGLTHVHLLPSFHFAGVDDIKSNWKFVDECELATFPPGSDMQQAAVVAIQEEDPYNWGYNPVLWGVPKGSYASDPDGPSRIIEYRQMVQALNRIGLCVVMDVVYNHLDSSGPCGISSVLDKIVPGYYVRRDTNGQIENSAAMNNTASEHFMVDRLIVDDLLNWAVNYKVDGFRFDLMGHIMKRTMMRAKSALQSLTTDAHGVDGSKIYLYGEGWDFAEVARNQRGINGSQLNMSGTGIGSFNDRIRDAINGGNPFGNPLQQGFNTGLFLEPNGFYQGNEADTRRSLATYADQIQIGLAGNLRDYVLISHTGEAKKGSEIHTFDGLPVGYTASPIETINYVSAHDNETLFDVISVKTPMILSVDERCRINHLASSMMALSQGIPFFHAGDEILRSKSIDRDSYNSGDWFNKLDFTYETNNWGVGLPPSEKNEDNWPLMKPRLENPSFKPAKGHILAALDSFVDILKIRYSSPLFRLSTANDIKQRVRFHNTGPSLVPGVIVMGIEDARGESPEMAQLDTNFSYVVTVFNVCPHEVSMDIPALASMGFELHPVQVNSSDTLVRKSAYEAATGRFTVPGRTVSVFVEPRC
Assay: LC-ESI-MS with UV quantification of transglycosylation products
Format: biochemical
Details: glycosyl donor, 10 mg/mL; acceptors pNP-sugars 8-14 mM; 20 mM sodium acetate pH 5.5; 5 mM CaCl2; 37 °C, 2 h

OC[C@H]1O[C@H](OC[C@H]2O[C@H](O[C@H]3[C@H](O)[C@@H](O)[C@@H](O[C@H]4[C@H](O)[C@@H](O)[C@@H](OC[C@H]5O[C@H](O[C@H]6[C@H](O)[C@@H](O)[C@@H](O[C@H]7[C@H](O)[C@@H](O)C(O)O[C@@H]7CO)O[C@@H]6CO)[C@H](O)[C@@H](O)[C@@H]5O)O[C@@H]4CO)O[C@@H]3CO)[C@H](O)[C@@H](O)[C@@H]2O)[C@H](O)[C@@H](O)[C@@H]1O (stereo partly drawn) [G1G3G3, 6^3-α-(6^3-α-D-glucosyl-maltotriosyl)-maltotriose]
LC-ESI-MS with UV quantification of transglycosylation products: G1G3G3 could serve as donor in HvLD TG reactions with all five pNP-sugars
